The values below come from patent publication US12269831B2, “Modulators of cystic fibrosis transmembrane conductance regulator” (Vertex Pharmaceuticals Incorporated, priority 2020, dated 2025).

Where only a bound is given, the exact number is not on record here.

T1 sequence (P13569 with tags, fused parts or gaps DEL508-508): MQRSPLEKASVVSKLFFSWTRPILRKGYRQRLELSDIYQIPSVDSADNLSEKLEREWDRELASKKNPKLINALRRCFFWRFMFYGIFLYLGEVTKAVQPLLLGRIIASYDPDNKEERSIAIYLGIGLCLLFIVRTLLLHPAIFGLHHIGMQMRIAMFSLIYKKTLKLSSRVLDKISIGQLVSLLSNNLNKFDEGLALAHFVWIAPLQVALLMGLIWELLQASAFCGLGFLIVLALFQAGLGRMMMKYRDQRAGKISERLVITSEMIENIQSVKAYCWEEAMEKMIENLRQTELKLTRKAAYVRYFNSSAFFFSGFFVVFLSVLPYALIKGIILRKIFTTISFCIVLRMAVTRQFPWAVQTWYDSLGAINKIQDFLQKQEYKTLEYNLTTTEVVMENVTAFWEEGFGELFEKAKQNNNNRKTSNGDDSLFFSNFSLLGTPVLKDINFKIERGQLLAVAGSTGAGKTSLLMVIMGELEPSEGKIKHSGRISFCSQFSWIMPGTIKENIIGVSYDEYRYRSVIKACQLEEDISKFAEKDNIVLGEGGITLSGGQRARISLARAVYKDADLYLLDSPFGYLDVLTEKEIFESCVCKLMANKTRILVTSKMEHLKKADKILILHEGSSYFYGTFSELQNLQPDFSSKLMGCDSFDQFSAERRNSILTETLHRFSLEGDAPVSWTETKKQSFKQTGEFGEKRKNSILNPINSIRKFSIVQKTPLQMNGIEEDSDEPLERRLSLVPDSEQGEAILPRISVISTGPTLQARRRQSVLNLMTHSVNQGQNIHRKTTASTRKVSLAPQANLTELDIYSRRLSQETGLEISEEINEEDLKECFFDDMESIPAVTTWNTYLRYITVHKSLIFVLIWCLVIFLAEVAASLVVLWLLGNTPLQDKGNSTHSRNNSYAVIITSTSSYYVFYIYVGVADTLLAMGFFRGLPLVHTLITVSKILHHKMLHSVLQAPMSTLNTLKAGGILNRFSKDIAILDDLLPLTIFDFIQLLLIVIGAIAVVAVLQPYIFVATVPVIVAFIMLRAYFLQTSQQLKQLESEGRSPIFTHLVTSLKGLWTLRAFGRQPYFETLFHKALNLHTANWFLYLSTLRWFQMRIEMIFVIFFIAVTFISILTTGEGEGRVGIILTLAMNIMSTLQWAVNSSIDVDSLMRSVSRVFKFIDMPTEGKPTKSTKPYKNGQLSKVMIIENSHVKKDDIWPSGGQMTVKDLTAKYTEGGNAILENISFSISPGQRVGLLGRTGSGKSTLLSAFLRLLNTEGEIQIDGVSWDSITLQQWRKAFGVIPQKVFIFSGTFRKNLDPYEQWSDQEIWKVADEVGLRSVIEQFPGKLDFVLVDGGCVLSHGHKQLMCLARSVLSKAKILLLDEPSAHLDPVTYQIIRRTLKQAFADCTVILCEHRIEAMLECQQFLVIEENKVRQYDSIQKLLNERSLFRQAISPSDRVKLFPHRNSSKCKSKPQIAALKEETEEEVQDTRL

The experiment addresses T1, CFTR (F508del/MF-HBE cells) (Homo sapiens, UniProt P13569, DEL508-508).
T1 construct: human bronchial epithelial (HBE) cells derived from CF subjects heterozygous for F508del and a minimal function CFTR mutation (F508del/MF-HBE); endogenous in cells; host or cells: primary human bronchial epithelial (HBE) cells from CF subjects, genotype F508del/minimal function
Kind of experiment: Ussing chamber assay of CFTR-mediated short-circuit currents (potentiator identification). In kind it is cell-based. To be noted: CFTR-mediated Isc, 18-24 h incubation at 37° C. with 10 μM (14S)-8-[3-(2-{dispiro[2.0.2.1]heptan-7-yl}ethoxy)-1H-pyrazol-1-yl]-... corrector, 20% human serum. On the procedure: Ussing Chamber Assay of CFTR-Mediated Short-Circuit Currents
Ussing chamber experiments were performed using human bronchial epithelial (HBE) cells derived from CF subjects heterozygous for F508del and a minimal function CFTR mutation (F508del/MF-HBE) and cultured as previously described (Neuberger T, Burton B, Clark H, Van Goor F Methods Mol Biol 2011:741:39-54). After four days the apical media was removed, and the cells were grown at an air liquid interface for >14 days prior to use.
To isolate the CFTR-mediated short-circuit (Isc) current, F508del/MF-HBE grown on Costar® Snapwell™ cell culture inserts were mounted in an Ussing chamber and the transepithelial ISC was measured under voltage-clamp recording conditions (Vhold=0 mV) at 37° C. The basolateral solution contained (in mM) 145 NaCl, 0.83 K2HPO4, 3.3 KH2PO4, 1.2 MgCl2, 1.2 CaCl2, 10 Glucose, 10 HEPES (pH adjusted to 7.4 with NaOH) and the apical solution contained (in mM) 145 NaGluconate, 1.2 MgCl2, 1.2 CaCl2, 10 glucose, 10 HEPES (pH adjusted to 7.4 with NaOH) and 30 μM amiloride to block the epithelial sodium channel. Forskolin (20 μM) was added to the apical surface to activate CFTR, followed by apical addition of a CFTR inhibitor cocktail consisting of BPO, GlyH-101 and CFTR inhibitor 172 (each at 20 μM final assay concentration) to specifically isolate CFTR currents. The CFTR-mediated Isc (μA/cm^2) for each condition was determined from the peak forskolin response to the steady-state current following inhibition.
Identification of Potentiator Compounds
The activity of the CFTR potentiator compounds on the CFTR-mediated Isc was determined in Ussing chamber studies as described above. The F508del/MF-HBE cell cultures were incubated with the potentiator compounds at a range of concentrations in combination with 10 μM (14S)-8-[3-(2-{dispiro[2.0.2.1]heptan-7-yl}ethoxy)-1H-pyrazol-1-yl]-12,12-dimethyl-2λ^6-thia-3,9,11,18,23-pentaazatetracyclo[17.3.1.111,14.05,10]tetracosa-1(22),5,7,9,19(23),20-hexaene-2,2,4-trione for 18-24 hours at 37° C. and in the presence of 20% human serum. The concentration of potentiator compounds and (14S)-8-[3-(2-{dispiro[2.0.2.1]heptan-7-yl}ethoxy)-1H-pyrazol-1-yl]-12,12-dimethyl-2λ^6-thia-3,9,11,18,23-pentaazatetracyclo[17.3.1.111,14.05,10]tetracosa-1(22),5,7,9,19(23),20-hexaene-2,2,4-trione used during the 18-24 hours incubations was kept constant throughout the Ussing chamber measurement of the CFTR-mediated Isc to ensure compounds were present throughout the entire experiment. The efficacy and potency of the putative F508del potentiators was compared to that of the known Vertex potentiator, ivacaftor (N-[2,4-bis(1,1-dimethylethyl)-5-hydroxyphenyl]-1,4-dihydro-4-oxoquinoline-3-carboxamide).
As a reminder, the EC50 is the concentration at which the effect is half-maximal. For the compound `OC1(C(F)(F)F)CCCCCCOc2nc(ccc2C(F)(F)F)C2=NN=C1O2` (racemic) [Compound 1, 6,15-bis(trifluoromethyl)-13,19-dioxa-3,4,18-triazatricyclo[12.3.1.12,5]nonadeca-1(17),2,4,14(18),15-pentaen-6-ol], the EC50 was over 1000 nM.

Consider `Nc1cc(C(F)(F)F)c2nc1-c1nnc(o1)C(O)(C(F)(F)F)CCCCCCO2` (racemic) [Compound 4, 17-Amino-6,15-bis(trifluoromethyl)-13,19-dioxa-3,4,18-triazatricyclo[12.3.1.12,5]nonadeca-1(18),2,4,14,16-pentaen-6-ol], for which the EC50 was under 500 nM. Next, `OC1(C(F)(F)F)CCCCCCOc2nc(ccc2C(F)(F)F)C2=NN=C1O2` (single isomer, unassigned) [Compound 3, 6,15-bis(trifluoromethyl)-13,19-dioxa-3,4,18-triazatricyclo[12.3.1.12,5]nonadeca-1(17),2,4,14(18),15-pentaen-6-ol]: over 1000 nM; `Nc1cc(C(F)(F)F)c2nc1-c1nnc(o1)[C@@](O)(C(F)(F)F)CCCCCCS2(=O)=O` (single isomer, unassigned) [Compound 9]: under 500 nM; `Nc1cc(C(F)(F)F)c2nc1-c1nnc(o1)C(O)(C(F)(F)F)CCCCCS2(=O)=O` (single isomer, unassigned) [Compound 15, 16-amino-12,12-dioxo-6,14-bis(trifluoromethyl)-18-oxa-12λ^6-thia-3,4,17-triazatricyclo[11.3.1.12,5]octadeca-1(17),2,4,13,15-pentaen-6-ol]: under 500 nM. In the case of `Nc1cc(C(F)(F)F)c2nc1-c1nnc(o1)[C@@](O)(C(F)(F)F)CCCCC[S+]2[O-]` (single isomer, unassigned) [Compound 23], the EC50 is over 1000 nM.

As to `Nc1cc(C(F)(F)F)c2nc1-c1nnc(o1)[C@@](O)(C(F)(F)F)CCCCC[S+]2[O-]` (single isomer, unassigned) [Compound 24], the EC50 is over 1000 nM. In the case of `Nc1cc(C(F)(F)F)c2nc1-c1nnc(o1)C(O)(C(F)(F)F)CCCCc1cccc(c1)O2` (single isomer, unassigned) [Compound 27, 20-amino-6,18-bis(trifluoromethyl)-16,23-dioxa-3,4,21-triazatetracyclo[15.3.1.12,5.111,15]tricosa-1(21),2,4,11(22),12,14,17,19-octaen-6-ol] it was under 500 nM; in that of `Nc1cc(C(F)(F)F)c2nc1-c1nnc(o1)C(O)(C(F)(F)F)CCCCc1cccc(c1)O2` (single isomer, unassigned) [Compound 28, 20-amino-6,18-bis(trifluoromethyl)-16,23-dioxa-3,4,21-triazatetracyclo[15.3.1.12,5.111,15]tricosa-1(21),2,4,11(22),12,14,17,19-octaen-6-ol], over 1000 nM; in that of `CC1CCC(O)(C(F)(F)F)C2=NN=C(O2)c2nc(c(C(F)(F)F)cc2N)Oc2cccc1c2` (single isomer, unassigned) [Compound 30, 19-amino-9-methyl-6,17-bis(trifluoromethyl)-15,22-dioxa-3,4,20-triazatetracyclo[14.3.1.12,5.110,14]docosa-1(20),2,4,10(21),11,13,16,18-octaen-6-ol], under 500 nM. Next, `Nc1cc(C(F)(F)F)c2nc1-c1nnc(o1)C(O)(C(F)(F)F)CCCCc1cc(F)cc(c1)O2` (single isomer, unassigned) [Compound 31, 20-amino-13-fluoro-6,18-bis(trifluoromethyl)-16,23-dioxa-3,4,21-triazatetracyclo[15.3.1.12,5.111,15]tricosa-1(21),2,4,11(22),12,14,17,19-octaen-6-ol]: under 500 nM; `Nc1cc(C(F)(F)F)c2nc1-c1nnc(o1)C(O)(C(F)(F)F)CCCCc1cc(F)cc(c1)O2` (single isomer, unassigned) [Compound 32, 20-amino-13-fluoro-6,18-bis(trifluoromethyl)-16,23-dioxa-3,4,21-triazatetracyclo[15.3.1.12,5.111,15]tricosa-1(21),2,4,11(22),12,14,17,19-octaen-6-ol]: over 1000 nM; `CC1CCC(O)(C(F)(F)F)C2=NN=C(O2)c2nc(c(C(F)(F)F)cc2N)Oc2cc(F)cc1c2` (single isomer, unassigned) [Compound 33, 19-amino-12-fluoro-9-methyl-6,17-bis(trifluoromethyl)-15,22-dioxa-3,4,20-triazatetracyclo[14.3.1.12,5.110,14]docosa-1(20),2,4,10(21),11,13,16,18-octaen-6-ol]: under 500 nM. Next, `CC(C)C1CCCCC[C@](O)(C(F)(F)F)C2=NN=C(O2)c2nc(c(C(F)(F)F)cc2N)O1` (single isomer, unassigned) [Compound 34]: under 500 nM. On to `CC(C)C1CCCCC[C@](O)(C(F)(F)F)C2=NN=C(O2)c2nc(c(C(F)(F)F)cc2N)O1` (single isomer, unassigned) [Compound 35], for which the concentration for a half-maximal effect (EC50) is under 500 nM. Next, `C[C@H]1Oc2nc(c(N)cc2C(F)(F)F)C2=NN=C(O2)[C@@](O)(C(F)(F)F)CCCCC1O` (single isomer, unassigned) [Compound 40]: under 500 nM; `C[C@H]1Oc2nc(c(N)cc2C(F)(F)F)C2=NN=C(O2)[C@@](O)(C(F)(F)F)CCCCC1O` (single isomer, unassigned) [Compound 41]: under 500 nM. Next, `C[C@@H]1CCC(O)CC[C@](O)(C(F)(F)F)C2=NN=C(O2)c2nc(c(C(F)(F)F)cc2N)O1` (single isomer, unassigned) [Compound 42]: under 500 nM. Next, `C[C@@H]1CC(O)CCC[C@](O)(C(F)(F)F)C2=NN=C(O2)c2nc(c(C(F)(F)F)cc2N)O1` (single isomer, unassigned) [Compound 43]: under 500 nM; `C[C@@H]1CCC(O)CC[C@](O)(C(F)(F)F)C2=NN=C(O2)c2nc(c(C(F)(F)F)cc2N)O1` (single isomer, unassigned) [Compound 45]: under 500 nM; `C[C@@H]1CC(O)CCC[C@](O)(C(F)(F)F)C2=NN=C(O2)c2nc(c(C(F)(F)F)cc2N)O1` (single isomer, unassigned) [Compound 46]: under 500 nM. For `Nc1cc(C(F)(F)F)c2nc1-c1nnc(o1)[C@@](O)(C(F)(F)F)CCCCCC(CC1CC1)O2` (single isomer, unassigned) [Compound 47], the EC50 was under 500 nM. In the case of `Nc1cc(C(F)(F)F)c2nc1-c1nnc(o1)[C@@](O)(C(F)(F)F)CCCCCC(CC1CC1)O2` (single isomer, unassigned) [Compound 48] it was under 500 nM; in that of `Nc1cc(C(F)(F)F)c2nc1-c1nnc(o1)[C@@](O)(C(F)(F)F)CCCCCC(Cc1ccc(F)cc1)O2` (single isomer, unassigned) [Compound 49], under 500 nM.

Turning to `Nc1cc(C(F)(F)F)c2nc1-c1nnc(o1)[C@@](O)(C(F)(F)F)CCCCCC(Cc1ccc(F)cc1)O2` (single isomer, unassigned) [Compound 50], the EC50 is under 500 nM.

As for `CC(C)(C)c1cccc(CC2CCCCC[C@](O)(C(F)(F)F)C3=NN=C(O3)c3nc(c(C(F)(F)F)cc3N)O2)c1` (single isomer, unassigned) [Compound 51], the EC50 is under 500 nM. For the compound `CC(C)(C)c1cccc(CC2CCCCC[C@](O)(C(F)(F)F)C3=NN=C(O3)c3nc(c(C(F)(F)F)cc3N)O2)c1` (single isomer, unassigned) [Compound 52], the EC50 is under 500 nM. In the case of `C[C@@H]1CCCC(O)C[C@](O)(C(F)(F)F)C2=NN=C(O2)c2nc(c(C(F)(F)F)cc2N)O1` (single isomer, unassigned) [Compound 53] it was under 500 nM; in that of `C[C@@H]1CCCCC(O)C(O)(C(F)(F)F)C2=NN=C(O2)c2nc(c(C(F)(F)F)cc2N)O1` (single isomer, unassigned) [Compound 56], over 1000 nM.

For `C[C@@H]1CCCCC(O)C(O)(C(F)(F)F)C2=NN=C(O2)c2nc(c(C(F)(F)F)cc2N)O1` (single isomer, unassigned) [Compound 57], the EC50 was under 500 nM.
